Data taken from ChEMBL document CHEMBL3286339, “Synthesis and in vivo SAR study of indolin-2-one-based multi-targeted inhibitors as potential anticancer agents” (Eur J Med Chem, 2014).
pIC50, pKi: −log10 of the molar value. Active and inactive are the calls of the source. The calls are words filed in the database; no cut-off is given here.

Experiments:
Mus musculus [1] = test: Toxicity in BALB/c nude mouse xenografted with human HT-29 cells assessed as hematuria at 80 mg/kg/day administered qd measured up to day 21; assay type: organism-based; settings: in vivo
Mus musculus [2] = test: Toxicity in BALB/c nude mouse xenografted with human HT-29 cells assessed as bloody stool at 80 mg/kg/day administered qd measured up to day 21; assay type: organism-based; settings: in vivo
Mus musculus [3] = test: Toxicity in BALB/c nude mouse xenografted with human NCI-H460 cells assessed as hematuria at 40 mg/kg/day administered qd; assay type: organism-based; settings: in vivo
Mus musculus [4] = test: Toxicity in BALB/c nude mouse xenografted with human NCI-H460 cells assessed as bloody stool at 40 mg/kg/day administered qd; assay type: organism-based; settings: in vivo
Mus musculus [5] = test: Toxicity in BALB/c nude mouse xenografted with human NCI-H460 cells assessed as severe weight loss at 40 mg/kg/day administered qd; assay type: organism-based; settings: in vivo
Aorta = test: Inhibition of micrangium generation in Sprague-Dawley rat aortic ring at 0.2 ug/ml after 6 days by inverted microscopic analysis; assay type: functional, tissue-based
HT-29 = test: Antitumor activity against human HT-29 cells xenografted in BALB/c nude mouse assessed as tumor growth inhibition at 80 mg/kg/day administered qd measured up to day 21 relative to control; assay type: functional; parameters: scale not given: the % may be the effect or the level left
[6] = Antiproliferative activity against human LO2 cells after 72 hrs by MTT assay; assay type: cell-based; settings: L02, 72 h
NCI-H460 = test: Antitumor activity against human NCI-H460 cells xenografted in BALB/c nude mouse assessed as tumor growth inhibition at 40 mg/kg/day administered qd measured up to day 21 relative to control; assay type: functional; settings: NCI-H460, 504 h, read-out: TGI
Mus musculus [7] = test: Toxicity in BALB/c nude mouse xenografted with human HT-29 cells assessed as change in body weight at 80 mg/kg/day administered qd relative to control; assay type: organism-based; settings: in vivo
Mus musculus [8] = test: Toxicity in BALB/c nude mouse xenografted with human NCI-H460 cells assessed as change in body weight at 40 mg/kg/day administered qd relative to control; assay type: organism-based; settings: in vivo
[9] = Solubility of the compound in water; assay type: physicochemical; settings: buffer
[10] = target: T1, Vascular endothelial growth factor receptor 3 (Homo sapiens, UniProt P35916); test: Binding affinity to VEGFR3 (unknown origin)
[11] = target: Receptor-type tyrosine-protein kinase FLT3 (Homo sapiens, UniProt P36888); test: Binding affinity to FLT3 (unknown origin)
[12] = target: T2, Vascular endothelial growth factor receptor 2 (Homo sapiens, UniProt P35968); test: Binding affinity to VEGFR2 (unknown origin)
[13] = target: T3, Vascular endothelial growth factor receptor 1 (Homo sapiens, UniProt P17948); test: Binding affinity to VEGFR1 (unknown origin)
[14] = target: T4, Proto-oncogene tyrosine-protein kinase receptor Ret (Homo sapiens, UniProt P07949); test: Binding affinity to RET (unknown origin)
[15] = target: Tyrosine-protein kinase receptor UFO (Homo sapiens, UniProt P30530); test: Binding affinity to AXL (unknown origin)
[16] = target: T5, ALK tyrosine kinase receptor (Homo sapiens, UniProt Q9UM73); test: Binding affinity to ALK (unknown origin)
[17] = target: Serine/threonine-protein kinase Chk1 (Homo sapiens, UniProt O14757); test: Binding affinity to CHK1 (unknown origin)
[18] = target: T6, Tyrosine-protein kinase ABL1 (Homo sapiens, UniProt P00519); test: Binding affinity to ABL (unknown origin)
[19] = target: T7, Tyrosine-protein kinase ABL2 (Homo sapiens, UniProt P42684); test: Binding affinity to ARG (unknown origin)
[20] = target: T8, Macrophage colony-stimulating factor 1 receptor (Homo sapiens, UniProt P07333); test: Binding affinity to FMS (unknown origin)
[21] = target: T9, Protein-tyrosine kinase 2-beta (Homo sapiens, UniProt Q14289); test: Binding affinity to PYK2 (unknown origin)
[22] = target: T10, Fibroblast growth factor receptor 1 (Homo sapiens, UniProt P11362); test: Binding affinity to FGFR1 (unknown origin)
[23] = target: Phosphorylase b kinase gamma catalytic chain, liver/testis isoform (Homo sapiens, UniProt P15735); test: Binding affinity to PHKgamma2 (unknown origin)
[24] = target: Tyrosine-protein kinase Fyn (Homo sapiens, UniProt P06241); test: Binding affinity to FYN (unknown origin)
[25] = target: T11, Tyrosine-protein kinase Lck (Homo sapiens, UniProt P06239); test: Binding affinity to LCK (unknown origin)
[26] = target: Receptor-type tyrosine-protein kinase FLT3 (Homo sapiens) (UniProt P36888); test: Inhibition of FLT3 (unknown origin) at 1 uM relative to control
[27] = target: Platelet-derived growth factor receptor beta (Homo sapiens, UniProt P09619); test: Inhibition of PDGFR-beta (unknown origin) at 1 uM relative to control
[28] = target: T3, Vascular endothelial growth factor receptor 1; test: Inhibition of VEGFR1 (unknown origin) at 1 uM relative to control
[29] = target: T6, Tyrosine-protein kinase ABL1; test: Inhibition of ABL (unknown origin) at 1 uM relative to control
[30] = target: T7, Tyrosine-protein kinase ABL2; test: Inhibition of ARG (unknown origin) at 1 uM relative to control
[31] = target: T8, Macrophage colony-stimulating factor 1 receptor; test: Inhibition of FMS (unknown origin) at 1 uM relative to control
[32] = target: T9, Protein-tyrosine kinase 2-beta; test: Inhibition of PYK2 (unknown origin) at 1 uM relative to control
[33] = target: T10, Fibroblast growth factor receptor 1; test: Inhibition of FGFR1 (unknown origin) at 1 uM relative to control
[34] = target: Phosphorylase b kinase gamma catalytic chain, liver/testis isoform (Homo sapiens) (UniProt P15735); test: Inhibition of PHKgamma2 (unknown origin) at 1 uM relative to control
TT = test: Antiproliferative activity against human TT cells pretreated for 72 hrs followed by compound-washout measured after 72 hrs by MTT assay; assay type: functional, cell-based
NCI-H526 = test: Antiproliferative activity against human NCI-H526 cells after 72 hrs by MTT assay; assay type: functional, cell-based; settings: NCI-H526, 72 h
[35] = Antiproliferative activity against human NCI-H3122 cells after 72 hrs by MTT assay; assay type: functional, cell-based; settings: NCI-H3122, 72 h
[36] = Antiproliferative activity against human Bel7402 cells after 72 hrs by MTT assay; assay type: functional, cell-based; settings: Bel-7402, 72 h
[37] = Antiproliferative activity against human HK2 cells after 72 hrs by MTT assay; assay type: cell-based; settings: HK-2, 72 h
[38] = target: T1, Vascular endothelial growth factor receptor 3; settings: 1 uM
Description: Inhibition of VEGFR3 (unknown origin) at 1 uM relative to control

[39] = target: T2, Vascular endothelial growth factor receptor 2; settings: 1 uM
Description: Inhibition of VEGFR2 (unknown origin) at 1 uM relative to control

[40] = target: T4, Proto-oncogene tyrosine-protein kinase receptor Ret; settings: 1 uM
Description: Inhibition of RET (unknown origin) at 1 uM relative to control

[41] = target: Fibroblast growth factor receptor 3 (Homo sapiens, UniProt P22607); settings: 1 uM
Description: Inhibition of FGFR3 (unknown origin) at 1 uM relative to control

[42] = target: T5, ALK tyrosine kinase receptor; settings: 1 uM
Description: Inhibition of ALK (unknown origin) at 1 uM relative to control

[43] = target: T11, Tyrosine-protein kinase Lck; settings: 1 uM
Description: Inhibition of LCK (unknown origin) at 1 uM relative to control

T6 sequence (P00519 whole entry): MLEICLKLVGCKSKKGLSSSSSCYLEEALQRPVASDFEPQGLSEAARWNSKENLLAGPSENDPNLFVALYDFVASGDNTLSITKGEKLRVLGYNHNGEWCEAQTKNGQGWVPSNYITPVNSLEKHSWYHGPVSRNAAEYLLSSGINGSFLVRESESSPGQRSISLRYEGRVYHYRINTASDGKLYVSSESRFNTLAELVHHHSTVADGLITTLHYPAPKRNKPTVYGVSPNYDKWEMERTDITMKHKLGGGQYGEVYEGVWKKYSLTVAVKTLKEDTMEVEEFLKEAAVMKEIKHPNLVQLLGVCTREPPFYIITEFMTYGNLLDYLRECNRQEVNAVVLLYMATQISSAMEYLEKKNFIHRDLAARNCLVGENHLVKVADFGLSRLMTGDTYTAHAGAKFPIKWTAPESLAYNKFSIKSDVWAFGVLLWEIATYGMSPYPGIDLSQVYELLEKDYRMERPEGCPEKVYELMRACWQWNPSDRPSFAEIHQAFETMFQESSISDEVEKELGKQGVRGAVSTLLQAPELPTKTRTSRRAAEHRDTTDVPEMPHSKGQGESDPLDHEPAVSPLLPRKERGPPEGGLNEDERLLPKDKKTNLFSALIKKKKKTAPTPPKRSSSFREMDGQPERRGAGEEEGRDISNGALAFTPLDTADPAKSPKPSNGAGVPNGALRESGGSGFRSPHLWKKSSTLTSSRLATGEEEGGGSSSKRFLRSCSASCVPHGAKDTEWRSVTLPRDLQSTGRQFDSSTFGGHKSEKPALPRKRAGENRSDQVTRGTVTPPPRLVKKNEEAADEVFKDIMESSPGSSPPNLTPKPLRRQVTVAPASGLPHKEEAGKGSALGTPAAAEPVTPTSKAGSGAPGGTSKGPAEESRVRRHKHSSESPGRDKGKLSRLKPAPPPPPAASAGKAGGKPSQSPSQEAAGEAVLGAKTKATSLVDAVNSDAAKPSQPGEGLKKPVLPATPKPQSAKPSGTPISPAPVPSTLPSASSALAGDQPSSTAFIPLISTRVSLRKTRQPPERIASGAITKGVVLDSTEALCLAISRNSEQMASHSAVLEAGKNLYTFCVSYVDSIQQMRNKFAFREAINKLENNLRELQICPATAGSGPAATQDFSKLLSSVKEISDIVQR
T2 sequence (P35968 whole entry): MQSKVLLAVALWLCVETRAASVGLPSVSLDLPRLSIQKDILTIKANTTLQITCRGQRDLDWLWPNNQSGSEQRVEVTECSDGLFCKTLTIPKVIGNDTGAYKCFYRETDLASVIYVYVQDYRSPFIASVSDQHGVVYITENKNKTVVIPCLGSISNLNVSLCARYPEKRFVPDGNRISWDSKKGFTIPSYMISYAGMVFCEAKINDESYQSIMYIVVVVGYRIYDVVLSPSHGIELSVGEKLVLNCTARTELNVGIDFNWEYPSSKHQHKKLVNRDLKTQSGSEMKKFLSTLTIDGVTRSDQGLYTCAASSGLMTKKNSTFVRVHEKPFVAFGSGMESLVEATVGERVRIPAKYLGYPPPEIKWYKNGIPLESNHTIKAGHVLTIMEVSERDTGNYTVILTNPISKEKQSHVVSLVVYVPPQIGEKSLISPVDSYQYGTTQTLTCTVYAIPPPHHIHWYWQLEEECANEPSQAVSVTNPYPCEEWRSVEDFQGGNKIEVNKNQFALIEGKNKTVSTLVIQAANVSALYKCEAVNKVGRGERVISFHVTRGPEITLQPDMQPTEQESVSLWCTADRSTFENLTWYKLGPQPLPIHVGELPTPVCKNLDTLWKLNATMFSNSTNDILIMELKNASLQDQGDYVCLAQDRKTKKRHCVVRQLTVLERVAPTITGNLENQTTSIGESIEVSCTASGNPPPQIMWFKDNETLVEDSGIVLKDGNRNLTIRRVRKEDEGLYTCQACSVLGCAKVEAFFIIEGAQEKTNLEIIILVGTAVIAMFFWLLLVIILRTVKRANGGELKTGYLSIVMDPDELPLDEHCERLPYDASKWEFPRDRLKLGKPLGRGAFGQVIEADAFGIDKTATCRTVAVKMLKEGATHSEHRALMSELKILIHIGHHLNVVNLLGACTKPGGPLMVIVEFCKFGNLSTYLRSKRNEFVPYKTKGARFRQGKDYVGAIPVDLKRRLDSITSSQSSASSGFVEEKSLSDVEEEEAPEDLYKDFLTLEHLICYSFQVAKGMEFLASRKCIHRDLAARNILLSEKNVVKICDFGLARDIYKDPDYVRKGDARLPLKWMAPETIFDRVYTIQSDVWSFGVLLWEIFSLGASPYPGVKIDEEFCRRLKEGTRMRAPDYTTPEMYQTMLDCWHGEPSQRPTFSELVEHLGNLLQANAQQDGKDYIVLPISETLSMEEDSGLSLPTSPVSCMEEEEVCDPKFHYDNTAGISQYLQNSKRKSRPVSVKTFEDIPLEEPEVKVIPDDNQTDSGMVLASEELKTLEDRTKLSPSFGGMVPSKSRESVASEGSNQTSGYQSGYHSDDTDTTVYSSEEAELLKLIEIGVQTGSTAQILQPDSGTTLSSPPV
T8 sequence (P07333 whole entry): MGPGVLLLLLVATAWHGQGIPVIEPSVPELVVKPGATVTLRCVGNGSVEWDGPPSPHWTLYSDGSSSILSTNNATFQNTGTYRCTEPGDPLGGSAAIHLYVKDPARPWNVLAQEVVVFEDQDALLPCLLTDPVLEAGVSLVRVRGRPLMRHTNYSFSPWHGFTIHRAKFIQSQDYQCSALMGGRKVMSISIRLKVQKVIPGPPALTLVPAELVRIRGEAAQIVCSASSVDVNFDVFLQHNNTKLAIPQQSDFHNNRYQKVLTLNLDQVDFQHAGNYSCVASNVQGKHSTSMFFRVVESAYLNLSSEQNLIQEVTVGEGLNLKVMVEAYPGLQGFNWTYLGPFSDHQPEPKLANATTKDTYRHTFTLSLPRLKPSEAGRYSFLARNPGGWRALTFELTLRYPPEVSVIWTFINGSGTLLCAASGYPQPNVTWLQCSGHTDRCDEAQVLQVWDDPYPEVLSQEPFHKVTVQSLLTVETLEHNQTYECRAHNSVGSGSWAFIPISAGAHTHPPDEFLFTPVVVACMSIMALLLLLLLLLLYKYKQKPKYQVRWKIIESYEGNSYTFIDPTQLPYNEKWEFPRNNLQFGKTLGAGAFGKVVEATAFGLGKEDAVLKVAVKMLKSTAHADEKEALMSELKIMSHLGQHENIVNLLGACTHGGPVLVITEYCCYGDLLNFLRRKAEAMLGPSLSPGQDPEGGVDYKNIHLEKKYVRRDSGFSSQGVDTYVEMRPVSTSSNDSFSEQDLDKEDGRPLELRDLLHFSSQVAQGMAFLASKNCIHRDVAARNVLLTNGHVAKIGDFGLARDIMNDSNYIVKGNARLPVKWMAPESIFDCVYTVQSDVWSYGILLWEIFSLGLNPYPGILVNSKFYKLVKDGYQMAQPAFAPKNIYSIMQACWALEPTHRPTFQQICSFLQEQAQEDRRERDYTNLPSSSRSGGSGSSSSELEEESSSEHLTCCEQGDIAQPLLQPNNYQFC
T1 sequence (P35916 whole entry): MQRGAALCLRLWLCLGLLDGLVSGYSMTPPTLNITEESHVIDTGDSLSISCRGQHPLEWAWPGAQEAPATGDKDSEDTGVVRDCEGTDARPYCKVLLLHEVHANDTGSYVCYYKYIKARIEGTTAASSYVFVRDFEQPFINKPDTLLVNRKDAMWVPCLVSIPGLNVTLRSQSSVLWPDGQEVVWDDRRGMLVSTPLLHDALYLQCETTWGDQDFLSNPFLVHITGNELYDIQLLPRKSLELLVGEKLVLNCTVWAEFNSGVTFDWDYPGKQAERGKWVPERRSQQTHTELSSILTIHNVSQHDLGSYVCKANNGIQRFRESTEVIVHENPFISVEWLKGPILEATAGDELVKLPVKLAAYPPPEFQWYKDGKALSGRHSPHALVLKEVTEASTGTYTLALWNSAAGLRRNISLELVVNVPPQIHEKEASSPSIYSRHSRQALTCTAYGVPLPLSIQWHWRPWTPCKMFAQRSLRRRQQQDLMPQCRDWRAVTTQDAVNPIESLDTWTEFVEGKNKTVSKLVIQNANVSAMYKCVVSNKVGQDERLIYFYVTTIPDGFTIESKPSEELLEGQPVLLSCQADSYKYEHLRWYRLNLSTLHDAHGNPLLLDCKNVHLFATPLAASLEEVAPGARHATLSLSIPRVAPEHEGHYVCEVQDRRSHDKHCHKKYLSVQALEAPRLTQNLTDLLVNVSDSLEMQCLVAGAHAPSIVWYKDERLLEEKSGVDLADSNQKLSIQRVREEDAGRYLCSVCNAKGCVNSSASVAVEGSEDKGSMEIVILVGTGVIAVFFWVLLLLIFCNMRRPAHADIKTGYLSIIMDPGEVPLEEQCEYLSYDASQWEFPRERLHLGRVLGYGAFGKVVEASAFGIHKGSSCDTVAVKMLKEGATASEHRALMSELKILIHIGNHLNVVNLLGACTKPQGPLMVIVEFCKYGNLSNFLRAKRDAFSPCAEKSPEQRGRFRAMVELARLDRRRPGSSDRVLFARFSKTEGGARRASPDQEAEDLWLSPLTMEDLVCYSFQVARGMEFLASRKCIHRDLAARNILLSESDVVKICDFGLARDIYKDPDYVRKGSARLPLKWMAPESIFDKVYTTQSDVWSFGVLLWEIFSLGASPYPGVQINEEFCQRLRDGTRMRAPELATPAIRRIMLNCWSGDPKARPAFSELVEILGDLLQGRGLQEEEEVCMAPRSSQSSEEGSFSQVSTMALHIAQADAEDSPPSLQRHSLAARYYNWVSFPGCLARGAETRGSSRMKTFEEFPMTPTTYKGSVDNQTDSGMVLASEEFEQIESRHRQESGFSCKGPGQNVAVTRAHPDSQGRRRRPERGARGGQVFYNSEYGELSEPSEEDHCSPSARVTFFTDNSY

solubility [9]: soluble
pKi [10]: > 9.52
pKi [11]: > 9.52
pKi [12]: 8.42
pKi [13]: 5.96
pKi [14]: 7.74
pKi [15]: 7.20
pKi [16]: 7.02
pKi [17]: 6.96
pKi [18]: 6.92
pKi [19]: 6.74
pKi [20]: 6.64
pKi [21]: 6.47
pKi [22]: 6.46
pKi [23]: 6.08
pKi [24]: 5.74
pKi [25]: 5.70
inhibition [26]: 100%
inhibition [27]: 79%
inhibition [28]: 52%
inhibition [29]: 93%
inhibition [30]: 76%
inhibition [31]: 84%
inhibition [32]: 72%
inhibition [33]: 71%
inhibition [34]: 51%
pIC50 (NCI-H526): 4.69
inhibition [38]: 99%
inhibition [39]: 99%
inhibition [40]: 99%
inhibition [41]: 91%
inhibition [42]: 87%
inhibition [43]: 44%
Compound: Cc1[nH]c(/C=C2\C(=O)Nc3ccc(F)cc32)c(C)c1NC(=O)CCN1CCN(C)CC1
Activity (Mus musculus [1]): Non-toxic
Activity (Mus musculus [2]): Non-toxic
Activity (Mus musculus [3]): Non-toxic
Activity (Mus musculus [4]): Non-toxic
Activity (Mus musculus [5]): Non-toxic
inhibition (Aorta): Active
Activity (HT-29): 84.7%
pIC50 [6]: 4.38
inhibition in vivo at 40 mg/kg/day (NCI-H460): 60.6%
Activity (Mus musculus [7]): 6.2%
Activity (Mus musculus [8]): 1.4%
pIC50 (TT): 7.15
pIC50 [35]: 4.77
pIC50 [36]: 4.83
pIC50 [37]: 5.16
